These compounds were tested on VR1 receptor (assay: High throughput calcium imaging assay (Fura2, Flex Station) of VR1 antagonists, pH 5.1 stimulus). Details: 1 uM compound; inhibition of calcium ion influx induced by capsaicin stimulation.
Assay type: cell-based

| SMILES | % Inhibition @ 1 uM |
| --- | --- |
| CC(C)Oc1cccc(NC(=O)c2ccc(-c3ncccc3Cl)cn2)c1 [Compound 345] | + (“+” compound exhibited 0-25% inhibition of calcium ion influx induced by capsaicin stimulation.) |
| CCCOc1ccc(NC(=O)c2ccc(-c3ncccc3Cl)cc2)cc1 [Compound 274] | + (“+” compound exhibited 0-25% inhibition of calcium ion influx induced by capsaicin stimulation.) |
| COc1ccc(NC(=O)c2ccc(-c3ncccc3Cl)cc2)cc1 [Compound 5] | + + (compound exhibited 25-50% inhibition of calcium ion influx induced by capsaicin stimulation) |
| O=C(Nc1cccc(Cl)c1)c1ccc(-c2ncccc2Cl)cc1 [Compound 12] | + (compound exhibited 0-25% inhibition of calcium ion influx induced by capsaicin stimulation) |
| O=C(Nc1ccc2c(c1)OCCO2)c1ccc(-c2ncccc2Cl)cc1 [Compound 1] | + + (compound exhibited 25-50% inhibition of calcium ion influx induced by capsaicin stimulation) |
| CC1CCCc2ccc(NC(=O)c3ccc(-c4ncccc4Cl)c(F)c3)cc21 (centres unmarked) [Compound 186] | + (compound exhibited 0-25% inhibition of calcium ion influx induced by capsaicin stimulation) |
| O=C(Nc1ccc(F)c(F)c1)c1ccc(-c2ncccc2Cl)c(F)c1 [Compound 178] | + + + (compound exhibited 50-75% inhibition of calcium ion influx induced by capsaicin stimulation) |
| COc1cc(C(=O)Nc2nccs2)ccc1-c1ncccc1Cl [Compound 235] | + (“+” compound exhibited 0-25% inhibition of calcium ion influx induced by capsaicin stimulation.) |
| COc1cc(C(=O)Nc2ccc3ccccc3c2)ccc1-c1ncccc1Cl [Compound 236] | + + + + (“+ + + +” compound exhibited 75% or greater inhibition of calcium ion influx induced by capsaicin stimulation.) |
| N#Cc1cccc(NC(=O)c2ccc(-c3ncccc3Cl)cc2F)c1 [Compound 84] | + + + + (compound exhibited 75% or greater inhibition of calcium ion influx induced by capsaicin stimulation) |
| Cc1cccnc1NC(=O)c1ccc(-c2ncccc2Cl)cc1 [Compound 48] | + + (compound exhibited 25-50% inhibition of calcium ion influx induced by capsaicin stimulation) |
| CC(C)(C)c1ccc(NC(=O)c2ccc(-c3ncccc3Cl)cc2F)cc1 [Compound 86] | + (compound exhibited 0-25% inhibition of calcium ion influx induced by capsaicin stimulation) |
| COc1cccc(NC(=O)c2ccc(-c3ncccc3Cl)cc2)c1 [Compound 2] | + (compound exhibited 0-25% inhibition of calcium ion influx induced by capsaicin stimulation) |
| COc1ccc(NC(=O)c2ccc(-c3ncccc3Cl)c(OC)c2)cc1 [Compound 190] | + (compound exhibited 0-25% inhibition of calcium ion influx induced by capsaicin stimulation) |
| O=C(Nc1ccc(N2CCNCC2)c(Cl)c1)c1ccc(-c2ncccc2Cl)cc1 [Compound 284] | + + + (“+ + +” compound exhibited 50-75% inhibition of calcium ion influx induced by capsaicin stimulation.) |
| CCOC(=O)c1ccc(NC(=O)c2ccc(-c3ncccc3Cl)cn2)cc1 [Compound 333] | + (“+” compound exhibited 0-25% inhibition of calcium ion influx induced by capsaicin stimulation.) |
| O=C(Nc1ccc(C(F)(F)F)cn1)c1ccc(-c2ncccc2Cl)cc1 [Compound 50] | + + (compound exhibited 25-50% inhibition of calcium ion influx induced by capsaicin stimulation) |
| CCCOc1ccc(NC(=O)c2ccc(-c3ncccc3Cl)cn2)cc1 [Compound 341] | + (“+” compound exhibited 0-25% inhibition of calcium ion influx induced by capsaicin stimulation.) |
| O=C(Nc1ccc(C2CCCCC2)cc1)c1ccc(-c2ncccc2Cl)cn1 [Compound 303] | + + + + (“+ + + +” compound exhibited 75% or greater inhibition of calcium ion influx induced by capsaicin stimulation.) |
| COc1cccc(NC(=O)c2ccc(-c3ncccc3Cl)c(OC)c2)c1 [Compound 196] | + + (compound exhibited 25-50% inhibition of calcium ion influx induced by capsaicin stimulation) |
| O=C(Nc1ccc(F)cc1[N+](=O)[O-])c1ccc(-c2ncccc2Cl)c(F)c1 [Compound 132] | + + + + (compound exhibited 75% or greater inhibition of calcium ion influx induced by capsaicin stimulation) |
| COc1cc(C(=O)Nc2cc(C)ccn2)ccc1-c1ncccc1Cl [Compound 223] | + + + + (“+ + + +” compound exhibited 75% or greater inhibition of calcium ion influx induced by capsaicin stimulation.) |
| CCCc1ccccc1NC(=O)c1ccc(-c2ncccc2Cl)c(OC)c1 [Compound 195] | + + (compound exhibited 25-50% inhibition of calcium ion influx induced by capsaicin stimulation) |

| SMILES | % Inhibition @ 1 uM |
| --- | --- |
| Cc1cc(NC(=O)c2ccc(-c3ncccc3Cl)cc2)nc(C)n1 [Compound 35] | + (compound exhibited 0-25% inhibition of calcium ion influx induced by capsaicin stimulation) |
| O=C(Nc1ccc(OC(F)(F)F)cc1)c1ccc(-c2ncccc2Cl)cn1 [Compound 343] | + (“+” compound exhibited 0-25% inhibition of calcium ion influx induced by capsaicin stimulation.) |
| O=C(Nc1ccc(Cl)nc1)c1ccc(-c2ncccc2Cl)c(F)c1 [Compound 152] | + (compound exhibited 0-25% inhibition of calcium ion influx induced by capsaicin stimulation) |
| O=C(Nc1ccc2[nH]ccc2c1)c1ccc(-c2ncccc2Cl)cc1 [Compound 4] | + + + + (compound exhibited 75% or greater inhibition of calcium ion influx induced by capsaicin stimulation) |
| O=C(Nc1cccnc1Cl)c1ccc(-c2ncccc2Cl)cc1F [Compound 101] | + (compound exhibited 0-25% inhibition of calcium ion influx induced by capsaicin stimulation) |
| O=C(Nc1cccc(OC(F)(F)F)c1)c1ccc(-c2ncccc2Cl)c(F)c1 [Compound 176] | + (compound exhibited 0-25% inhibition of calcium ion influx induced by capsaicin stimulation) |
| O=C(Nc1ccc(OC(F)(F)F)cc1)c1ccc(-c2ncccc2Cl)c(F)c1 [Compound 175] | + + (compound exhibited 25-50% inhibition of calcium ion influx induced by capsaicin stimulation) |
| CCn1c2ccccc2c2cc(NC(=O)c3ccc(-c4ncccc4Cl)cn3)ccc21 [Compound 328] | + + + + (“+ + + +” compound exhibited 75% or greater inhibition of calcium ion influx induced by capsaicin stimulation.) |
| O=C(Nc1ccc(N2CCNCC2)c(Cl)c1)c1ccc(-c2ncccc2Cl)c(F)c1 [Compound 183] | + + + + (compound exhibited 75% or greater inhibition of calcium ion influx induced by capsaicin stimulation) |
| COc1cc(C(=O)Nc2cccc(OC(C)C)c2)ccc1-c1ncccc1Cl [Compound 253] | + (“+” compound exhibited 0-25% inhibition of calcium ion influx induced by capsaicin stimulation.) |
| CCN(CC)CCOC(=O)c1ccc(NC(=O)c2ccc(-c3ncccc3Cl)cc2)cc1 [Compound 265] | + (“+” compound exhibited 0-25% inhibition of calcium ion influx induced by capsaicin stimulation.) |
| O=C(Nc1ccc(C(F)(F)F)cc1)c1ccc(-c2ncccc2Cl)c(F)c1 [Compound 135] | + + (compound exhibited 25-50% inhibition of calcium ion influx induced by capsaicin stimulation) |
| O=C(Nc1cccc(Br)c1)c1ccc(-c2ncccc2Cl)cc1F [Compound 83] | + + + + (compound exhibited 75% or greater inhibition of calcium ion influx induced by capsaicin stimulation) |
| O=C(Nc1ccc(Cl)c(C(=O)O)c1)c1ccc(-c2ncccc2Cl)c(F)c1 [Compound 166] | + + + + (compound exhibited 75% or greater inhibition of calcium ion influx induced by capsaicin stimulation) |
| O=C(Nc1ccc2cn[nH]c2c1)c1ccc(-c2ncccc2Cl)c(F)c1 [Compound 172] | + + + (compound exhibited 50-75% inhibition of calcium ion influx induced by capsaicin stimulation) |
| O=C(Nc1ccncn1)c1ccc(-c2ncccc2Cl)cn1 [Compound 319] | + + + + (“+ + + +” compound exhibited 75% or greater inhibition of calcium ion influx induced by capsaicin stimulation.) |
| CCCCc1ccc(NC(=O)c2ccc(-c3ncccc3Cl)c(F)c2)cc1 [Compound 127] | + + + + (compound exhibited 75% or greater inhibition of calcium ion influx induced by capsaicin stimulation) |
| Cc1cc(C)nc(NC(=O)c2ccc(-c3ncccc3Cl)cn2)c1 [Compound 312] | + (“+” compound exhibited 0-25% inhibition of calcium ion influx induced by capsaicin stimulation.) |
| N#Cc1ccccc1NC(=O)c1ccc(-c2ncccc2Cl)cc1 [Compound 11] | + (compound exhibited 0-25% inhibition of calcium ion influx induced by capsaicin stimulation) |
| COc1cc(C(=O)NC(C)(C)C)ccc1-c1ncccc1Cl [Compound 187] | + (compound exhibited 0-25% inhibition of calcium ion influx induced by capsaicin stimulation) |
| O=C(Nc1cccc(Br)c1)c1ccc(-c2ncccc2Cl)cc1 [Compound 21] | + (compound exhibited 0-25% inhibition of calcium ion influx induced by capsaicin stimulation) |
| CCCOc1ccc(NC(=O)c2ccc(-c3ncccc3Cl)c(F)c2)cc1 [Compound 173] | + + (compound exhibited 25-50% inhibition of calcium ion influx induced by capsaicin stimulation) |
| COc1ccc(NC(=O)c2ccc(-c3ncccc3Cl)c(OC)c2)cc1OC [Compound 240] | + (“+” compound exhibited 0-25% inhibition of calcium ion influx induced by capsaicin stimulation.) |

Same assay, conditions: 1 uM compound; inhibition of calcium ion influx induced by capsaicin stimulation; 1 µM

| SMILES | % Inhibition @ 1 uM |
| --- | --- |
| O=C(Nc1ccc2ccccc2c1)c1ccc(-c2ncccc2Cl)cc1 [Compound 54] | + (compound exhibited 0-25% inhibition of calcium ion influx induced by capsaicin stimulation) |

— patent US20050197364A1, “Amide compounds as ion channel ligands and uses thereof” (priority 2003, published 2005)
